Laboratory results published in patent US20260007609A1, “METHOD FOR PRODUCING EXTRACELLULAR VESICLES CONTAINING BIOACTIVE SUBSTANCE” (The University of Tokyo, priority 2022, published 2026).
Entries after “also recorded” stand apart in the source; their conditions may differ.

What was measured:
Type in all cases: cell-based
[1] = test system: ShhN-EGFP transduced NIH3T3 fibroblasts; experiment: In vitro extracellular vesicle release imaging (Shh-EV tracking)
Procedure: (§1) CID1067700 (#SML0545-5MG) was purchased from Sigma-Aldrich, was solubilized at 40 mM in DMSO, and was added to cells to a final concentration of 40 μM, followed by performing culture for 24 hours. GW4869 (#13127) was purchased from Cayman Chemical, was solubilized at 5 mM in DMSO, and was added to cells to a final concentration of 1.25 μM, followed by performing culture for 24 hours. TAS116 (#HY-15785) was purchased from MedChemExpress, was solubilized at 1 mM in DMSO and was added to cells to a final concentration of 0.5 μM, followed by performing culture for 48 hours.
In order to monitor the Brownian motion of Shh extracellular particles, NIH3T3 cells were plated at 1×10^4 cells/well onto an 8-well LabTek II Chamber #1.5 German Coverglass System pre-coated with poly-L-lysine. On the 3rd day of the culture, an adenoviral Shh-N-EGFP expression vector was introduced into the NIH3T3 cells. […] Twenty-four hours after the medium replacement, time-lapse imaging was performed using a spinning disc microscope (Yokogawa/ZEISS) according to the previous report (Tanaka et al., Neuron 90, 1215-1229, 2016) under conditions of 5% CO2 and 37° C. at intervals of 5 seconds. Shh extracellular vesicles with Brownian motion were identified using Imaris 8 software (Bitplane) and were then quantified.
Extracellular vesicles with a large particle diameter, which contain Shh, were visualized by live cell imaging in ShhN-EGFP transduced NIH3T3 fibroblasts treated with CID1067700 (FIG. 5).
These particles were automatically tracked and were identified as extracellular vesicles released from cells under drug (CID1067700, GW4869, or TSA116) addition conditions (FIGS. 5B to 5I). […] However, this increase in the released amount of Shh-EVs due to the CID1067700 treatment disappeared, when the cells were treated with […] TSA116 (Hsp90 inhibitor) for 48 hours or with 1.25 μM GW4869 (nSMase2 inhibitor) for 24 hours (FIG. 5J).

[2] = test system: human mesenchymal stem cells; experiment: Transmission electron microscopy of hMSC-EV pellets; conditions: TEM histogram of particle sizes larger than 100 nm, vs DMSO
Procedure: Observation by transmission electron microscopy (TEM) was performed according to previously reported standard methods (Nonaka et al., Cell 95, 829-837, 1998; Takei et al., The Journal of cell biology 131, 1789-1800, 1995). A precipitate of extracellular vesicles was fixed in Half Kalnovsky fixative at 37° C. for 10 min and then at 4° C. overnight, followed by post-fixation with 1% OsO4 (in 0.1 M cacodylate buffer (pH 7.4)) on ice for 1.5 hours. Thereafter, the sample was subjected to electron staining with 1% uranyl acetate for 1 hour, and was then dehydrated using a graded ethanol series. Finally, the dehydrated extracellular vesicle sample was embedded in Quetol-812 (Nisshin EM), was then cut into ultrathin sections, was then electron-stained with uranyl acetate and lead citrate, and was then observed using a JEM2000 microscope at 100 keV, or using a JEM-1400Flash microscope at 80 keV. Next, the extracellular vesicle pellets were observed using TEM (FIG. 4). In addition to conventionally known small (approximately 100 nm in diameter) exosome-like particles, particles with a low electron density (bright) and a diameter of larger than 800 nm were contained in the extracellular vesicle fraction derived from human mesenchymal stem cells treated with CID1067700, and the particles tended to be surrounded with a lipid double layer (FIGS. 4A and 4B).

[3] = test system: human mesenchymal stem cells; experiment: Immunoblotting of extracellular vesicle fraction from culture supernatant of treated human mesenchymal stem cells; conditions: 40 μM, 24 hours, compared to DMSO
Procedure: as §1
(§2) Human mesenchymal stem cells were plated on three 10-cm cell culture dishes at a density of 5,000 to 6,000 cells/cm^2. Six days after initiation of the culture, per dish, the medium was replaced with the EV Production Basal Medium (FUJIFILM-Wako, #053-09451 and #298-84001), to which 10 mL of supplements had been added (wherein a new medium to be replaced comprised an additive compound, as appropriate). After 24 hours of culture under conditions of 5% CO2 and 37° C., the medium was recovered, and was then centrifuged at 2,000×g for 30 minutes at 4° C. to remove the cell debris. Using a Millipore Amicon Ultra 30,000 MWCO filter (Pall, #MAP030C37), the resultant was centrifuged at 4,000×g for 60 minutes at 4° C., so that it was condensed to 1 ml. To the condensed culture supernatant, 500 μL of Total Exosome Isolation Reagent (Invitrogen, #4478359) was added, and the obtained mixture was then incubated overnight, while mixing it by inverting. The solution that had been mixed overnight was centrifuged at 10,000×g for at least 1 hour, and the extracellular vesicles were harvested as a precipitate, which was then resuspended in 30 μL of PBS. The obtained extracellular vesicles were preserved at 4° C. and were then used in experiments within 1 week.
Immunoblotting was performed according to the previous report (Yin et al., Neuron 70, 310-325, 2011). […] The bands were detected using an ImageQuant LAS 4000 mini system (GE Healthcare Life Sciences, USA) and were then quantified using ImageJ software. […]

[4] = test system: human mesenchymal stem cells; experiment: Nanoparticle tracking analysis (NTA) of culture supernatant of human mesenchymal stem cells
Procedure: as §2
The above-described culture supernatant was diluted with PBS, and was then analyzed using Zetaview Nanoparticle Tracking Analysis Instrument (Particle Metrix, Germany). The collected data were analyzed and diagrammatized using Prism software (Graphpad, ver. 7 and 9.3.1).
First, human mesenchymal stem cells were cultured for 24 hours in a basic medium for EV production (FUJIFILM-Wako) supplemented with supplements in the presence or absence of CID1067700, and NTA was performed using the culture supernatant after removing impurities by centrifugation (FIG. 3). Using ZetaView system capable of counting extracellular vesicles with a large particle diameter such as approximately 1 μm, the measurement was performed at the “highest” mode. […]

NIH3T3 cells [5] = experiment: Immunostaining of ceramide
Procedure: (§3) As for light microscopic observation, cells were plated on a 35-mm glass-bottomed dish (Matsunami, Japan, #D11130H) that had been pre-coated with poly-L-lysine (1:1,000, Sigma, #P4707) for 1 hour. Immunofluorescence labelling was performed using the antibodies described above. Briefly, cells were incubated with the primary antibody overnight at 4° C., and with the secondary antibody for 1 hour, followed by washing with PBS three times for 5 minutes for each washing. Thereafter, as mentioned above, using a spinning disc confocal microscope (Yokogawa/ZEISS) or an LSM780 confocal microscope equipped with Airyscan, the cells were observed. Three dimensional reconstruction of the cells was performed using Imaris 8 software (Bitplane).
In order to investigate whether nSMase2 activity is influenced by the CID1067700 treatment, NIH3T3 cells were treated with CID1067700 and/or GW4869, and immunostaining of ceramide was then performed (FIG. 6).

NIH3T3 cells [6] = experiment: Fluorescence microscopy of extracellular structures containing Shh and Hsp90; conditions: 40 μM, 24 hours, vs DMSO
Procedure: as §3
The morphological characteristics of Shh-EVs mediated by Hsp90 secreted from CID1067700-treated cells were observed. Both Shh-tagRFP and Hsp90-EGFP were transduced into NIH3T3 cells, and the effects obtained by treating the cells with CID1067700 for 24 hours were compared. The cells were fixed the cells and were then photographed by z-stacks, and a three-dimensional model was then constructed. […] Since these structures were observed after the medium was removed and the cells were fixed, they are thought to interact with the cells as intermediate structures in the process of extracellular vesicle release. […]

[7] = culture supernatant, 24 hours treatment, n=4

Structure (SMILES): CC1(C)Cc2c(sc(NC(=S)NC(=O)c3ccccc3)c2C(=O)O)CO1 [CID1067700, 2-(benzoylcarbamothioylamino)-5,5-dimethyl-4,7-dihydrothieno[2,3-c]pyran-3-carboxylic acid]
- number of Shh-EVs ([1]; 24 hours of treatment, compared to control (DMSO treatment)): significantly increased
- number of large-size extracellular vesicles [2]: significantly increased
- amount of Shh in the extracellular vesicles released from the cells [3]: significantly elevated
- amount of the general exosome marker Hsp90 in extracellular vesicles [3]: largely unaltered
- amount of the general exosome marker TSG101 in extracellular vesicles [3]: largely unaltered
- extracellular vesicles with a diameter of 100 to 800 nm per ml [4, 7]: 3.2±1.9×10^8 particles/ml
- extracellular vesicles with a diameter of larger than 800 nm [4, 7]: 6.6±2.2×10^7 particles/ml
- number of extracellular vesicles with a particle diameter of greater than 800 nm ([4]; result in words, vs DMSO alone): significantly increased
- expression level of ceramide in the cytoplasm (NIH3T3 cells [5]; 24 hours of treatment (40 μM), compared to DMSO alone): significantly increased
- cells with extracellular structures containing Hsp90 and Shh (NIH3T3 cells [6]): significantly increased

Structure (SMILES): O=C(/C=C/c1ccc(/C=C/C(=O)Nc2ccc(C3=NCCN3)cc2)cc1)Nc1ccc(C2=NCCN2)cc1 [GW4869]
- increase in the released amount of Shh-EVs due to the CID1067700 treatment ([1]; co-treatment with 1.25 μM GW4869 for 24 hours): disappeared
- increase in the expression level of ceramide caused by CID1067700 (NIH3T3 cells [5]; simultaneous treatment with GW4869 (2.5 μM), 24 hours): significantly suppressed; also recorded: offset

Structure (SMILES): CCc1cc(C(N)=O)ccc1-n1nc(C(C)C)c2c(-n3cnc(-c4cnn(C)c4)c3)ccnc21 [TSA116]
- increase in the released amount of Shh-EVs due to the CID1067700 treatment ([1]; co-treatment with 5 μM TSA116 for 48 hours): disappeared
